For the assay, the system named is HLA alleles of class II. The assay can be described thus: Affinity of epitopes for HLA alleles of class II. The format is binding, human. The note with it: for Concatenation affinity for the HLA alleles of class II: H2B-II peptides; for Concatenation affinity for the HLA alleles of class II / Affinity HLA alleles of class II: Table 1; for Affinity HLA alleles of class II: H2B-II core epitopes. The source says: The multiepitopic peptide compounds (24 to 40-mer), having a high affinity with a maximized number of HLA molecules of class I and of class II, such as the affinities for the alleles HLA of class I and HLA of class II of the epitopes in the peptides of the sequences SEQ ID NO: 22, 23, 65, 66, 69, 73, 77, 96, 97, 137, 138, and 157, 185, have a high immunoprevalent potential corresponding to an optimal vaccine coverage, in particular for the populations concerned. The degree of coverage of the peptide compounds of the invention show a very high added value compared with the peptides of the prior art.

“Also recorded” adds a separate entry of the source.

Take “RSWNVYVGRSLKAIN (Leishmania major) [SEQ ID NO: 28]”: the “Concatenation affinity for the HLA alleles of class II” value is “HLA-DRB5*01:01, HLA-DRB1*01:01, HLA-DRB1*03:01,; also recorded: HLA-DRB1*04:01, HLA-DRB1*11:01, HLA-DRB1*13:02,; also recorded: HLA-DRB1*04:05, HLA-DRB1*07:01, HLA-DRB1*09:01,; also recorded: HLA-DRB1*15:01, HLA-DPA1*02:01/DPB1*01:01,; also recorded: HLA-DRB1*08:02”.

As to “SDYSHSMIRDLDFSN (listed as Leishmania infantum) [SEQ ID NO: 166]”, for the setting “PSA KC-2.7 peptides, Table 3”, the “Concatenation affinity for HLA alleles of class II” value is on record as “HLA-DRB1*04:05, HLA-DRB1*07:01,; also recorded: HLA-DRB1*12:01, HLA-DRB1*09:01,; also recorded: HLA-DRB4*01:01,; also recorded: HLA-DPA1*02:01/DPB1*14:01”.

For the sequence “SENAIVTSRKVQEEV (Leishmania major) [SEQ ID NO: 113]”, the “Concatenation affinity for HLA alleles of class II” value (LmlRAB-IIB peptides, Table 2) is on record as “HLA-DRB1*03:01, HLA-DRB1*07:01,; also recorded: HLA-DRB1*08:02, HLA-DRB1*11:01,; also recorded: HLA-DRB1*12:01”.

With “SGEGYFLTDEKTSLV (listed as Leishmania infantum) [SEQ ID NO: 144]”, the “Concatenation affinity for HLA alleles of class II” value (PSA KC-2.6 peptides, Table 3) was “HLA-DRB1*01:01, HLA-DRB1*03:01,; also recorded: HLA-DRB1*04:01, HLA-DRB1*04:05,; also recorded: HLA-DRB1*07:01, HLA-DRB1*11:01,; also recorded: HLA-DRB3*01:01, HLA-DRB3*02:02,; also recorded: HLA-DPA1*02:01/DPB1*01:01”.

As to “SGSDYSHSMIRDLDF (listed as Leishmania infantum) [SEQ ID NO: 167]”, the “Concatenation affinity for HLA alleles of class II” value (PSA KC-2.7 peptides, Table 3) is reported as “HLA-DRB1*01:01, HLA-DRB1*04:05,; also recorded: HLA-DRB1*07:01, HLA-DRB1*09:01,; also recorded: HLA-DRB5*01:01,; also recorded: HLA-DPA1*02:01/DPB1*14:01”.

With “SHSMIRDLDGSNMGL (SHSMIRDLDFSNMGL; listed as Leishmania infantum) [SEQ ID NO: 168]”, the “Concatenation affinity for HLA alleles of class II” value (PSA KC-2.7 peptides, Table 3) was “HLA-DRB1*03:01, HLA-DRB1*04:01,; also recorded: HLA-DRB1*04:05, HLA-DRB1*08:02,; also recorded: HLA-DRB1*12:01, HLA-DRB4*01:01”.

Take “SLKAINAQMSMSHRT (Leishmania major) [SEQ ID NO: 37]”: the “Concatenation affinity for the HLA alleles of class II” value is reported as “HLA-DRB1*07:01, HLA-DRB1*04:01, HLA-DRB1*04:05,; also recorded: HLA-DRB1*09:01, HLA-DRB1*11:01, HLA-DRB1*15:01,; also recorded: HLA-DRB5*01:01, HLA-DRB1*01:01, HLA-DRB1*08:02,; also recorded: HLA-DRB4*01:01,”.

On to “SRKVQEEVFDLFTDV (Leishmania major) [SEQ ID NO: 114]”, for which the “Concatenation affinity for HLA alleles of class II” value (LmlRAB-IIB peptides, Table 2) was “HLA-DRB1*03:01, HLA-DPA1*01:03/DPB1*02:01,; also recorded: HLA-DPA1*02:01/DPB1*05:01,; also recorded: HLA-DPA1*03:01/DPB1*04:02”.

Take “SVVGRHLSIVADHMP (Leishmania major) [SEQ ID NO: 83]”: the “Concatenation affinity for HLA alleles of class II” value (LmLRAB-IIA peptides, Table 2) is “HLA-DRB1*15:01”.

In the case of “SWNVYVGRSLKAINA (Leishmania major) [SEQ ID NO: 29]”, the “Concatenation affinity for the HLA alleles of class II” value was “HLA-DRB5*01:01, HLA-DRB1*04:05, HLA-DPA1*03:01/; also recorded: DPB1*04:02, HLA-DRB1*01:01, HLA-DRB1*03:01,; also recorded: HLA-DRB1*04:01, HLA-DRB1*11:01, HLA-DRB1*13:02,; also recorded: HLA-DRB1*07:01, HLA-DRB1*09:01, HLA-DRB1*15:01,; also recorded: HLA-DPA1*02:01/DPB1*01:01, HLA-DRB1*08:02”.

As for “TSRKVQEEVFDLFTD (Leishmania major) [SEQ ID NO: 115]”, for the setting “LmlRAB-IIB peptides, Table 2”, the “Concatenation affinity for HLA alleles of class II” value is “HLA-DRB1*03:01, HLA-DPA1*01:03/DPB1*02:01,; also recorded: HLA-DPA1*02:01/DPB1*05:01,; also recorded: HLA-DPA1*03:01/HLA-DPB1*04:02,; also recorded: HLA-DPA1*02:01/HLA-DPB1*14:01”.

In the case of “VGRHLSIVA (Leishmania major) [SEQ ID NO: 91]”, the “Concatenation affinity for HLA alleles of class II” value (LmLRAB-IIA core, Table 2) is “HLA-DRB1*15:01”.

As to “VGRHLSIVADHMPHL (Leishmania major) [SEQ ID NO: 85]”, the “Concatenation affinity for HLA alleles of class II” value (LmLRAB-IIA peptides, Table 2) is reported as “HLA-DRB1*03:01,; also recorded: HLA-DRB3*01:01,; also recorded: HLA-DRB1*13:02,; also recorded: HLA-DRB1*15:01,”.

As for “VGRSLKAIN (Leishmania major) [SEQ ID NO: 51]”, the “Affinity HLA alleles of class II” value is reported as “HLA-DRB1*03:01,; also recorded: HLA-DRB1*04:05,; also recorded: HLA-DRB1*08:02,; also recorded: HLA-DRB1*11:01”.

Consider “VGRSLKAINAWMSMS (VGRSLKAINAQMSMS; Leishmania major) [SEQ ID NO: 34]”, for which the “Concatenation affinity for the HLA alleles of class II” value was “HLA-DRB1*01:01, HLA-DRB1*04:05, HLA-DRB1*07:01,; also recorded: HLA-DRB1*09:01, HLA-DRB4*01:01, HLA-DRB5*01:01,; also recorded: HLA-DRB1*04:01, HLA-DRB1*08:02, HLA-DRB1*11:01,; also recorded: HLA-DRB1*13:02”.

With “VQEEVFDLFTDVHYS (Leishmania major) [SEQ ID NO: 117]”, where the note is “LmlRAB-IIB peptides, Table 2”, the “Concatenation affinity for HLA alleles of class II” value was “HLA-DRB1*03:01, HLA-DRB1*04:01,; also recorded: HLA-DRB1*04:05, HLA-DRB1*07:01,; also recorded: HLA-DRB1*15:01, HLA-DPA1*01:03/DPB1*02:01,; also recorded: HLA-DPA1*02:01/DPB1*05:01,; also recorded: HLA-DPA1*03:01/DPB1*04:02”.

Consider “VTSRKQEEVFDLFT (Leishmania major) [SEQ ID NO: 118]”, for which the “Concatenation affinity for HLA alleles of class II” value (LmlRAB-IIB peptides, Table 2) was “HLA-DRB1*03:01, HLA-DPA1*01:03/DPB1*02:01,; also recorded: HLA-DPA1*02:01/DPB1*05:01,; also recorded: HLA-DPA1*03:01/HLA-DPB1*04:02,; also recorded: HLA-DPA1*02:01/HLA-DPB1*14:01”.

Take “VVGRHLSIVADHMPH (Leishmania major) [SEQ ID NO: 84]”: under “LmLRAB-IIA peptides, Table 2”, the “Concatenation affinity for HLA alleles of class II” value is given as “HLA-DRB1*01:01”.

As for “VYVGRSLKAINAQMS (Leishmania major) [SEQ ID NO: 32]”, the “Concatenation affinity for the HLA alleles of class II” value is “HLA-DRB1*01:01, HLA-DRB1*04:05, HLA-DRB1*07:01,; also recorded: HLA-DRB4*01:01, HLA-DRB1*04:01, HLA-DRB1*09:01,; also recorded: HLA-DRB1*03:01, HLA-DRB1*11:01, HLA-DRB1*15:01,; also recorded: HLA-DRB1*08:02”.

As to “WNVYVGRSL (Leishmania major) [SEQ ID NO: 53]”, the “Affinity HLA alleles of class II” value was “HLA-DRB1*04:05,; also recorded: HLA-DRB1*07:01,; also recorded: HLA-DRB1*09:01,; also recorded: HLA-DRB1*15:01,; also recorded: HLA-DRB5*01:01”.

Values taken from patent publication US11559575B2, “Multi-epitopic peptide compounds and vaccines against leishmaniasis” (INSTITUT DE RECHERCHE POUR LE DEVELOPPEMENT, priority 2018, dated 2023).
